Results from patent publication EP0326331B1, “Substituted quinolines and cinnolines” (Dow AgroSciences LLC, priority 1988, dated 1989).

Key:
Assay type in all cases: in vivo
[1] = tested on: Twospotted spider mites (Tetranychus urticae Koch); assay: Mite/insect screen, SM; details: Tetranychus urticae, percent mortality; SAW, SM & MA RATE 200 PPM; read-out: SM RESULTS %
Summary of the method: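 Foliar spray to runoff (10 psi), 1 h drying; aqueous dilutions from acetone/alcohol emulsifier stock. Mortality (%) after standard exposure.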

[2] = tested on: Septoria tritici (leaf blotch); assay: Test 1 greenhouse foliar spray screen, leaf blotch on wheat; details: disease control rating, foliar spray on wheat, 400 ppm (+++ at 100 ppm)
[3] = tested on: Pyricularia oryzae (rice blast); assay: whole plant or invertebrate; details: disease control rating, foliar spray on rice, 400 ppm (+++ at 100 ppm)
[4] = tested on: Pseudoperonospora cubensis (downy mildew); assay: Test 1 greenhouse foliar spray screen, downy mildew on squash; details: disease control rating, foliar spray on squash, 400 ppm (+++ at 100 ppm)
[5] = tested on: Puccinia recondita tritici (leaf rust); assay: Test 1 greenhouse foliar spray screen, leaf rust on wheat; details: disease control rating, foliar spray on wheat, 400 ppm (+++ at 100 ppm)
[6] = tested on: Botrytis cinerea (gray mold); assay: Test 1 greenhouse foliar spray screen, gray mold on grape berries; details: disease control rating, spray on grape berries, 400 ppm (+++ at 100 ppm)
[7] = tested on: southern armyworm (Spodopetra eridania Cramer); assay: Mite/insect screen, SAW; details: Spodoptera eridania, percent mortality; SAW, SM & MA RATE 200 PPM; read-out: SAW RESULTS %
Summary of the method: (§1)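 Read-out: percent mortality after standard exposure periods. Test solutions were water dilutions of compound dissolved in acetone/alcohol (50:50) with emulsifier blends; leaves were sprayed to runoff on both surfaces and air-dried for one hour before exposure.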

[8] = tested on: Erysiphe graminis tritici (powdery mildew); assay: Test 1 greenhouse foliar spray screen, powdery mildew on wheat; details: disease control rating, foliar spray on wheat, 400 ppm (+++ at 100 ppm)
corn rootworm = assay: Mite/insect screen, CRW; details: percent mortality; CRW RATE 12.00 PPM; read-out: CRW RESULTS %
Summary of the method: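 Read-out: % mortality after standard exposure. Formulation: acetone/alcohol (50:50) with emulsifiers at 23 g and 13 g per liter, water-diluted to final test levels.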

[9] = tested on: melon aphids (Aphis gossypii Glover); assay: Mite/insect screen, MA; details: Aphis gossypii, percent mortality; SAW, SM & MA RATE 200 PPM; read-out: MA RESULTS %
Summary of the method: as §1

[10] = tested on: Venturia inaequalis (apple scab); assay: Test 1 greenhouse foliar spray screen, apple scab on apple seedling; details: disease control rating, foliar spray on apple seedling, 400 ppm (+++ at 100 ppm)

SMILES | mortality at 200 ppm [1] | LEAF BLOT [2] | RICE BLAST [3] | DOWN MDEW [4] | LEAF RUST [5] | GRAY MOLD [6] | mortality at 200 ppm [7] | POWD MDEW [8] | mortality at 12 ppm (corn rootworm) | mortality at 200 ppm [9] | APPL SCAB [10]
CCc1ccc2nccc(NCCc3ccccc3)c2c1 [Example 3, 6-ethyl-N-(2-phenylethyl)-4-quinolinamine] | 0% | - (0-19% control at 400 ppm) | ++ (90-100% control at 400 ppm) | +++ (90-100% control at 100 ppm) | + (20-89% control at 400 ppm) | - (0-19% control at 400 ppm) | 0% | - (0-19% control at 400 ppm) | 0% | 0% | - (0-19% control at 400 ppm)
CCN(CCc1ccccc1)c1ccnc2ccccc12 [Example 4, N-ethyl-N-(2-phenylethyl)-4-quinolinamine] | 0% | - (0-19% control at 400 ppm) | + (20-89% control at 400 ppm) | ++ (90-100% control at 400 ppm) | ++ (90-100% control at 400 ppm) | - (0-19% control at 400 ppm) | 0% | + (20-89% control at 400 ppm) | 0% | 0% | - (0-19% control at 400 ppm)
Cc1cc(NCCc2ccccc2)c2ccccc2n1 [Example 6, 2-methyl-N-(2-phenylethyl)-4-quinolinamine] | 0% | - (0-19% control at 400 ppm) | + (20-89% control at 400 ppm) | ++ (90-100% control at 400 ppm) | + (20-89% control at 400 ppm) | + (20-89% control at 400 ppm) | 0% | ++ (90-100% control at 400 ppm) | 0% | 0% | - (0-19% control at 400 ppm)
FC(F)(F)c1ccc2c(NCCc3ccccc3)ccnc2c1 [Example 17, N-(2-phenylethyl)-7-(trifluoromethyl)-4-quinolinamine] | 0% | - (0-19% control at 400 ppm) | + (20-89% control at 400 ppm) | ++ (90-100% control at 400 ppm) | ++ (90-100% control at 400 ppm) | - (0-19% control at 400 ppm) | 0% | ++ (90-100% control at 400 ppm) | 0% | 0% | - (0-19% control at 400 ppm)
Brc1ccc(CCNc2ccnc3ccccc23)cc1 [Example 18, N-[2-(4-bromophenyl)ethyl]-4-quinolinamine] | 0% | - (0-19% control at 400 ppm) | ++ (90-100% control at 400 ppm) | ++ (90-100% control at 400 ppm) | ++ (90-100% control at 400 ppm) | + (20-89% control at 400 ppm) | 0% | + (20-89% control at 400 ppm) | 0% | 0% | - (0-19% control at 400 ppm)
Cc1ccc(CCNc2ccnc3ccccc23)cc1 [Example 19, N-[2-(4-methylphenyl)ethyl]-4-quinolinamine] | 0% | - (0-19% control at 400 ppm) | ++ (90-100% control at 400 ppm) | +++ (90-100% control at 100 ppm) | ++ (90-100% control at 400 ppm) | - (0-19% control at 400 ppm) | 0% | + (20-89% control at 400 ppm) | 0% | 0% | - (0-19% control at 400 ppm)
Clc1ccc(CCNc2ccnc3ccccc23)cc1 [Example 20, N-[2-(4-chlorophenyl)ethyl]-4-quinolinamine] | 0% | - (0-19% control at 400 ppm) | + (20-89% control at 400 ppm) | +++ (90-100% control at 100 ppm) | + (20-89% control at 400 ppm) | - (0-19% control at 400 ppm) | 0% | + (20-89% control at 400 ppm) | 0% | 0% | - (0-19% control at 400 ppm)
CC(CNc1ccnc2ccccc12)c1ccccc1 (stereo not shown) [Example 21, N-(2-phenylpropyl)-4-quinolinamine] | 0% | - (0-19% control at 400 ppm) | + (20-89% control at 400 ppm) | ++ (90-100% control at 400 ppm) | + (20-89% control at 400 ppm) | - (0-19% control at 400 ppm) | 0% | + (20-89% control at 400 ppm) | 0% | 0% | - (0-19% control at 400 ppm)
COc1ccc(CCNc2ccnc3ccccc23)cc1 [Example 22, N-[2-(4-methoxyphenyl)-ethyl]-4-quinolinamine] | 0% | - (0-19% control at 400 ppm) | + (20-89% control at 400 ppm) | +++ (90-100% control at 100 ppm) | + (20-89% control at 400 ppm) | - (0-19% control at 400 ppm) | 0% | + (20-89% control at 400 ppm) | 0% | 0% | - (0-19% control at 400 ppm)
c1ccc(C(CNc2ccnc3ccccc23)c2ccccc2)cc1 [Example 23, N-(2,2-diphenylethyl)-4-quinolinamine] | 0% | - (0-19% control at 400 ppm) | + (20-89% control at 400 ppm) | +++ (90-100% control at 100 ppm) | + (20-89% control at 400 ppm) | - (0-19% control at 400 ppm) | 0% | + (20-89% control at 400 ppm) | 0% | 0% | - (0-19% control at 400 ppm)
CC(Cc1ccccc1)Nc1ccnc2ccccc12 (stereo not shown) [Example 24, N-(1-methyl-2-phenylethyl)-4-quinolinamine] | 0% | - (0-19% control at 400 ppm) | + (20-89% control at 400 ppm) | +++ (90-100% control at 100 ppm) | + (20-89% control at 400 ppm) | - (0-19% control at 400 ppm) | 0% | + (20-89% control at 400 ppm) | 0% | 0% | - (0-19% control at 400 ppm)
Clc1cc(NCCc2ccccc2)c2ccccc2n1 [Example 25, 2-chloro-N-(2-phenylethyl)-4-quinolinamine] | 0% | - (0-19% control at 400 ppm) | + (20-89% control at 400 ppm) | +++ (90-100% control at 100 ppm) | ++ (90-100% control at 400 ppm) | - (0-19% control at 400 ppm) | 0% | + (20-89% control at 400 ppm) | 0% | 0% | - (0-19% control at 400 ppm)
OC(CNc1ccnc2ccccc12)c1ccccc1 (stereo not drawn) [Example 26, α-[(4-quinolinylamino)methyl]benzenemethanol] | 0% | - (0-19% control at 400 ppm) | + (20-89% control at 400 ppm) | +++ (90-100% control at 100 ppm) | - (0-19% control at 400 ppm) | - (0-19% control at 400 ppm) | 0% | + (20-89% control at 400 ppm) | 0% | 0% | - (0-19% control at 400 ppm)
Cc1cccc2c(NCCc3ccccc3)ccnc12 [Example 27, 8-methyl-N-(2-phenylethyl)-4-quinolinamine] | 0% | - (0-19% control at 400 ppm) | ++ (90-100% control at 400 ppm) | +++ (90-100% control at 100 ppm) | + (20-89% control at 400 ppm) | - (0-19% control at 400 ppm) | 0% | + (20-89% control at 400 ppm) | 0% | 0% | - (0-19% control at 400 ppm)
